Assay results from PubChem BioAssay AID328 (DTP/NCI, 2004).
Toxic doses and inconclusive results are not listed.

System: BDF1 mice, P388 leukemia ip, median survival T/C
Assay: NCI In Vivo Anticancer Drug Screen. Data for tumor model P388 Leukemia (intraperitoneal) in B6D2F1 (BDF1) mice
Details: endpoint: median survival time, higher = longer survival
Outline: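 Mice carrying the transplantable tumour receive compound or vehicle. Survival is followed in each arm, and the treated measure is divided by the vehicle measure.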

[1] = dose: 12.5 mg/kg/injection, schedule: Q01DX009 (ip), vehicle: Klucel (hydroxypropylcellulose) (HPC)
[2] = dose: 25.0 mg/kg/injection, schedule: Q01DX009 (ip), vehicle: Klucel (hydroxypropylcellulose) (HPC)
[3] = dose: 50.0 mg/kg/injection, schedule: Q04DX003 (ip), vehicle: saline with Tween-80

For `CC(C)(C)C1Sc2nc3ccccc3n2C1=O` (stereo not drawn), the T/C [1] was 114 % of control, the T/C (dose: 12.5 mg/kg/injection, schedule: Q04DX003 (ip), vehicle: Klucel (hydroxypropylcellulose) (HPC)) was 100 % of control and the T/C [2] was 114 % of control. For the same compound, the T/C (dose: 25.0 mg/kg/injection, schedule: Q04DX003 (ip), vehicle: Klucel (hydroxypropylcellulose) (HPC)) was 120 % of control and the T/C (dose: 50.0 mg/kg/injection, schedule: Q04DX003 (ip), vehicle: Klucel (hydroxypropylcellulose) (HPC)) was 120 % of control.

In the case of `CC(=O)c1ccc(F)c(C)c1`, the T/C (dose: 100.0 mg/kg/injection, schedule: Q01DX001 (ip), vehicle: saline sonified) is reported as 105 % of control, the T/C (dose: 200.0 mg/kg/injection, schedule: Q01DX001 (ip), vehicle: saline sonified) is reported as 110 % of control and the T/C (dose: 400.0 mg/kg/injection, schedule: Q01DX001 (ip), vehicle: saline sonified) is reported as 105 % of control.

For `CCN(CC)c1c(C)nnc2c(-c3ccccc3)cnn12`, the T/C [3] was 108 % of control, the T/C (dose: 100.0 mg/kg/injection, schedule: Q04DX003 (ip), vehicle: saline with Tween-80) was 100 % of control and the T/C (dose: 200.0 mg/kg/injection, schedule: Q04DX003 (ip), vehicle: saline with Tween-80) was 104 % of control.

In the case of `Cc1n(Cc2ccccc2)c2c([n+]1C)C(=O)c1ccccc1C2=O`, the T/C (dose: 0.5 mg/kg/injection, schedule: Q01DX010 (ip), vehicle: saline) is reported as 100 % of control, the T/C (dose: 1.0 mg/kg/injection, schedule: Q01DX010 (ip), vehicle: saline) is reported as 109 % of control and the T/C (dose: 2.0 mg/kg/injection, schedule: Q01DX010 (ip), vehicle: saline) is reported as 113 % of control. For the same compound, the T/C (dose: 125.0 micrograms/kg/injection, schedule: Q01DX009 (ip), vehicle: Klucel (hydroxypropylcellulose) (HPC)) was 105 % of control, the T/C (dose: 250.0 micrograms/kg/injection, schedule: Q01DX009 (ip), vehicle: Klucel (hydroxypropylcellulose) (HPC)) was 100 % of control and the T/C (dose: 500.0 micrograms/kg/injection, schedule: Q01DX009 (ip), vehicle: Klucel (hydroxypropylcellulose) (HPC)) was 110 % of control. For the same compound, the T/C (dose: 1000.0 micrograms/kg/injection, schedule: Q01DX009 (ip), vehicle: Klucel (hydroxypropylcellulose) (HPC)) was 115 % of control and the T/C (dose: 2000.0 micrograms/kg/injection, schedule: Q01DX009 (ip), vehicle: Klucel (hydroxypropylcellulose) (HPC)) was 120 % of control.

For `CCCOC(=O)/C=C(\Br)C(=O)OCCC`, the T/C (dose: 12.5 mg/kg/injection, schedule: Q04DX003 (ip), vehicle: saline with Tween-80) was 108 % of control, the T/C (dose: 25.0 mg/kg/injection, schedule: Q04DX003 (ip), vehicle: saline with Tween-80) was 110 % of control and the T/C [3] was 95 % of control.

`Nc1ccc(S(=O)(=O)c2cc(O)c3ccccc3c2O)cc1` was tested, and the T/C (dose: 6.25 mg/kg/injection, schedule: Q01DX009 (ip), vehicle: Klucel (hydroxypropylcellulose) (HPC)) was 118 % of control, the T/C [1] was 104 % of control and the T/C [2] was 122 % of control.

For `Cc1ccc(C)c2c1[nH]c1c(C)c3ccncc3c(C)c12`, the T/C (dose: 25.0 mg/kg/injection, schedule: Q01DX001 (ip), vehicle: saline with Tween-80) was 101 % of control, the T/C (dose: 50.0 mg/kg/injection, schedule: Q01DX001 (ip), vehicle: saline with Tween-80) was 91 % of control and the T/C (dose: 100.0 mg/kg/injection, schedule: Q01DX001 (ip), vehicle: saline with Tween-80) was 96 % of control.

`Oc1ccc2ccccc2c1N=Nc1ccccc1` was tested, and the T/C (dose: 100.0 mg/kg/injection, schedule: Q01DX009 (ip), vehicle: Klucel (hydroxypropylcellulose) (HPC)) was 87 % of control, the T/C (dose: 100.0 mg/kg/injection, schedule: Q04DX003 (ip), vehicle: Klucel (hydroxypropylcellulose) (HPC)) was 109 % of control and the T/C (dose: 200.0 mg/kg/injection, schedule: Q01DX009 (ip), vehicle: Klucel (hydroxypropylcellulose) (HPC)) was 104 % of control. For the same compound, the T/C (dose: 200.0 mg/kg/injection, schedule: Q04DX003 (ip), vehicle: Klucel (hydroxypropylcellulose) (HPC)) was 104 % of control, the T/C (dose: 400.0 mg/kg/injection, schedule: Q01DX009 (ip), vehicle: Klucel (hydroxypropylcellulose) (HPC)) was 91 % of control and the T/C (dose: 400.0 mg/kg/injection, schedule: Q04DX003 (ip), vehicle: Klucel (hydroxypropylcellulose) (HPC)) was 104 % of control.

In the case of `Cc1c2oc3c(C)ccc(C(=O)NC4C(=O)NC(C(C)C)C(=O)N5CCCC5C(=O)N(C)CC(=O)N(C)C(C(C)C)C(=O)OC4C)c3nc-2c(C(=O)NC2C(=O)NC(C(C)C)C(=O)N3CCCC3C(=O)N(C)CC(=O)N(C)C(C(C)C)C(=O)OC2C)c(NCCCO)c1=O` (stereo not drawn), the T/C (dose: 0.05 mg/kg/injection, schedule: Q01DX009 (ip), vehicle: saline + alcohol) is reported as 150 % of control, the T/C (dose: 0.1 mg/kg/injection, schedule: Q01DX009 (ip), vehicle: saline + alcohol) is reported as 172 % of control and the T/C (dose: 0.2 mg/kg/injection, schedule: Q01DX009 (ip), vehicle: saline + alcohol) is reported as 210 % of control. The T/C (dose: 0.3 mg/kg/injection, schedule: Q04DX003 (ip), vehicle: saline + alcohol) was 169 % of control, the T/C (dose: 0.4 mg/kg/injection, schedule: Q01DX009 (ip), vehicle: saline + alcohol) was 226 % of control and the T/C (dose: 0.6 mg/kg/injection, schedule: Q04DX003 (ip), vehicle: saline + alcohol) was 191 % of control. The T/C (dose: 0.8 mg/kg/injection, schedule: Q01DX001 (ip), vehicle: saline + alcohol) was 153 % of control, the T/C (dose: 0.8 mg/kg/injection, schedule: Q01DX009 (ip), vehicle: saline + alcohol) was 285 % of control and the T/C (dose: 1.2 mg/kg/injection, schedule: Q04DX003 (ip), vehicle: saline + alcohol) was 200 % of control. The T/C (dose: 2.4 mg/kg/injection, schedule: Q04DX003 (ip), vehicle: saline + alcohol) was 261 % of control, the T/C (dose: 3.2 mg/kg/injection, schedule: Q01DX001 (ip), vehicle: saline + alcohol) was 207 % of control and the T/C (dose: 4.8 mg/kg/injection, schedule: Q04DX003 (ip), vehicle: saline + alcohol) was 248 % of control. For the same compound, the T/C (dose: 6.4 mg/kg/injection, schedule: Q01DX001 (ip), vehicle: saline + alcohol) was 198 % of control.

For `COc1ccc(Cc2ccccc2)c(O)c1`, the T/C (dose: 50.0 mg/kg/injection, schedule: Q01DX009 (ip), vehicle: other) was 108 % of control, the T/C (dose: 100.0 mg/kg/injection, schedule: Q01DX009 (ip), vehicle: other) was 104 % of control and the T/C (dose: 100.0 mg/kg/injection, schedule: Q04DX003 (ip), vehicle: other) was 109 % of control. The T/C (dose: 200.0 mg/kg/injection, schedule: Q01DX009 (ip), vehicle: other) was 116 % of control, the T/C (dose: 200.0 mg/kg/injection, schedule: Q04DX003 (ip), vehicle: other) was 104 % of control and the T/C (dose: 400.0 mg/kg/injection, schedule: Q04DX003 (ip), vehicle: other) was 109 % of control.

In the case of `CSc1ccc(NC(=O)CCl)cc1`, the T/C (dose: 12.5 mg/kg/injection, schedule: Q01DX009 (ip), vehicle: saline with Tween-80) is reported as 107 % of control, the T/C (dose: 25.0 mg/kg/injection, schedule: Q01DX009 (ip), vehicle: saline with Tween-80) is reported as 105 % of control and the T/C (dose: 50.0 mg/kg/injection, schedule: Q01DX009 (ip), vehicle: saline with Tween-80) is reported as 106 % of control.

With `CN(CCO)/N=N/c1nc[nH]c1C(N)=O` the T/C (dose: 1.56 mg/kg/injection, schedule: Q01DX009 (ip), vehicle: saline) was 95 % of control, the T/C (dose: 3.13 mg/kg/injection, schedule: Q01DX009 (ip), vehicle: saline) was 100 % of control and the T/C (dose: 6.25 mg/kg/injection, schedule: Q01DX009 (ip), vehicle: saline) was 100 % of control. The T/C (dose: 25.0 mg/kg/injection, schedule: Q01DX009 (ip), vehicle: saline) was 92 % of control, the T/C (dose: 100.0 mg/kg/injection, schedule: Q04DX003 (ip), vehicle: saline) was 105 % of control and the T/C (dose: 200.0 mg/kg/injection, schedule: Q01DX009 (ip), vehicle: saline) was 110 % of control. The T/C (dose: 200.0 mg/kg/injection, schedule: Q04DX003 (ip), vehicle: saline) was 100 % of control, the T/C (dose: 400.0 mg/kg/injection, schedule: Q01DX009 (ip), vehicle: saline) was 100 % of control and the T/C (dose: 400.0 mg/kg/injection, schedule: Q04DX003 (ip), vehicle: saline) was 105 % of control.

With `Oc1c(-c2ccccc2)cc(-[n+]2c(-c3ccccc3)cc(-c3ccccc3)cc2-c2ccccc2)cc1-c1ccccc1` the T/C (dose: 0.38 mg/kg/injection, schedule: Q01DX009 (ip), vehicle: saline with Tween-80) was 100 % of control, the T/C (dose: 0.75 mg/kg/injection, schedule: Q01DX009 (ip), vehicle: saline with Tween-80) was 108 % of control and the T/C (dose: 1.5 mg/kg/injection, schedule: Q01DX009 (ip), vehicle: saline with Tween-80) was 108 % of control.
